Test results from US20220348565A1, “PHARMACEUTICAL COMPOUNDS” (SENTINEL ONCOLOGY LIMITED, priority 2019, published 2022).

Tests used:
U87MG cells [1] = experiment: U87MG human glioblastoma cell viability, SRB assay, 72 hours; type: cell-based; details: listed as A-3
Method: The following protocol was used to measure the effects of compounds of the invention on U87MG cell viability.
U87MG cells were grown in their recommended growth media/supplements (ATCC). Cells were seeded at a concentration of 5000 cells per well into 96 well plates overnight at 37° C., 5% CO2. Cells were treated with relevant concentrations of test compound for 72 hours. After 72 hours incubation, viability was established using sulforhodamine B (SRB) colorimetric assay. Percentage viability was calculated against the mean of the DMSO treated control samples, and IC50 values for inhibition of cell growth were calculated using GraphPad Prism software by nonlinear regression (4 parameter logistic equation).

HeLa cells = experiment: Cells in mitosis (phospho-histone H3, mitotic index), HeLa; type: cell-based; details: Homo sapiens, % mitotic cells (phospho-histone H3), 24 hours
Source text: (§1) Inhibiting the ability of PLK1 and PLK4 to bind to their partners through their PBDs is known to cause cells to arrest in mitosis. Experimentally, this can be measured by assessing the number of cells which are in mitosis at a certain time after treatment with a test compound by immunofluorescent detection of phosphorylated Histone H3 (pH3), a mark which is only present in mitotic cells. PLK1/4-PBD inhibitors are expected to cause a dose-dependent increase in pH3-positive cells, which is reported as Mitotic Index (MI)—the percentage of cells which, at a given time, are positive for this mitotic mark.
(§2) The following protocol was used to measure the effects of atropisomer A-2 and atropisomer A-3 on arresting cells in mitosis.
(§3) Cells were plated at 10 000/well in 96-well plates and incubated overnight. The following day atropisomer A-2 stocks in DMSO were diluted in medium then added to cells with a maximum final DMSO concentration on cells of 0.2%. Cells were incubated with the compound for 24 hours then fixed in 3.7% formaldehyde. Cells were permeabilised with 0.1% Triton X-100 then incubated with anti-phospho-histone H3 (Ser10) antibody (Abcam). The cells were washed with PBS then incubated with AlexaFluor 488 labelled goat anti-rabbit IgG (Invitrogen) in the presence of 4 ug/mL Hoechst 33342 (Invitrogen). […]

U87MG cells [2] = experiment: Cells in mitosis (phospho-histone H3, mitotic index), U87MG; type: cell-based; details: Homo sapiens, U-87 MG; % mitotic cells (phospho-histone H3), 24 hours
Source text: as §1, §2, §3

[3] = system: wild-type KRAS HeLa cells; experiment: HeLa cell viability, wild-type KRAS transgene, Cell Titre Blue; type: cell-based; details: 72 hours, listed as A-3, read-out: WT GI50
Method: (§4) Atropisomers A-1, A-2, A-3 and A-4 were tested on HeLa cells engineered to inducibly express wild-type or oncogenic KRasG12V transgenes using the FLP-in/T-Rex system (Invitrogen). Cells were plated, and then treated with or without Doxycycline to induce transgene expression, and then treated with serially-diluted PBD inhibitors. After 72 hours of incubation, cell viability was assessed using the Cell Titre Blue reagent (Promega) and a BMG Pherastar plate reader. The effect of PBD inhibition on cell viability with either wild-type or oncogenic G12V KRAS was assessed using GraphPad Prism.
(§5) From the results obtained by following the above protocol, the GI50 values against the wild-type and KRAS G12V HeLa cell line of each of the atropisomers were determined as shown in Table 12.

KRAS G12V HeLa cell line = experiment: HeLa cell viability, oncogenic KRasG12V transgene, Cell Titre Blue; type: cell-based; details: KRAS G12V HeLa cells, 72 hours; listed as A-3
Method: as §4, §5

[4] = Mouse PK, plasma after i.v. and p.o. dosing (oral bioavailability); type: in vivo, Male CD-1 mice; details: for half-life: read-out: T ½ (converted)
Method: (§6) Atropisomers A-2 and A-3 were evaluated in an in vivo mouse model to determine brain and plasma concentrations following p.o. and i.v. dosing.
(§7) Male CD-1 mice were dosed with the compounds of Examples A-2 and A-3, either by i.v. administration (2 mg/kg) or by p.o. administration (10 mg/kg). Eight samples were taken for analysis in the i.v. leg at 2, 10, 30 min, 1, 2, 4, 8, and 24 (for i.v) and 9 samples in the p.o. leg at 15, 30 min, 1, 2, 4, 8, 24, 48 and 72 hrs.
(§8) The compounds of Examples A-2 and A-3 were both formulated in 10% DMSO/90% hydroxypropyl-beta-cyclodextrin (20% w/v in water) for i.v. and p.o. dosing. N =3 mice per time point.
(§9) Post dosing, terminal blood samples were taken from individual animals and delivered into labelled polypropylene tubes containing anticoagulant (EDTA). The samples were held on wet ice for a maximum of 30 min while sampling of all the animals in the cohort was completed. The blood samples were centrifuged for plasma (4° C., 21100 g for 5 min) and the resulting plasma transferred into corresponding labelled tubes. Terminal brains from each PO dosed animal were excised, rinsed with saline and placed into pre-weighed labelled polypropylene tubes and the samples re-weighed prior to storage.
(§10) Quantitative bioanalysis was carried out using liquid chromatography—mass spectroscopy was performed. The results are shown in Tables 14, 15 and 16 below and in FIGS. 12 to 15.

[5] = Mouse PK, brain exposure after p.o. dosing; type: in vivo, Male CD-1 mice
Method: as §6, §7, §8, §9, §10

[6] = mouse, 2 mg/kg, 2 mq/Kq IV, male CD-1 mice, plasma
[7] = mouse, 10 mg/kg, 10 mq/Kq PO, male CD-1 mice, plasma
[8] = mouse, po, brain exposure, p.o. 10 mg/kg, male CD-1 mice

- IC50 (U87MG cells [1]): 150 nM
- EC50 (HeLa cells): 30 nM
- EC50 (U87MG cells [2]): 100 nM
- GI50 [3]: 4.68 nM
- GI50 (KRAS G12V HeLa cell line): 2.6 nM
- CI ([4]; 2 mq/Kq IV, male CD-1 mice, plasma): 16.8 mL/min/kg
- F ([4]; 10 mq/Kq PO vs 2 mq/Kq IV, male CD-1 mice): 70%
- AUC(0-inf) [4, 6]: 1990 ng·h/mL
- Cmax [4, 6]: 274 ng/mL
- half-life [4, 6]: 8.4 h
- AUC(0-inf) [4, 7]: 6920 ng·h/mL
- Cmax [4, 7]: 322 ng/mL
- half-life [4, 7]: 8.3 h
- AUC(0-t) ([4]; mouse, po, plasma, p.o. 10 mg/kg, male CD-1 mice, read-out: AUClast plasma): 6920 ng·h/mL
- oral absorption / oral bioavailability (in words) ([4]; oral dosing in mice): highly absorbed
- Cmax [5, 8]: 604 ng/mL
- Tmax [5, 8]: 8 h
- half-life ([5]; mouse, po, brain exposure, p.o. 10 mg/kg, male CD-1 mice, read-out: T ½ (converted)): 8.2 h
- AUC(0-t) ([5]; mouse, po, brain, p.o. 10 mg/kg, male CD-1 mice, read-out: AUClast brain): 14100 ng·h/mL
- brain exposure (in words) ([5]; oral dosing in mice): high brain exposure
Structure (SMILES): CN(C)CCNC(=O)c1ccc(-c2ccc(-c3ccc(Cl)cc3)n2-c2ccccc2C(F)(F)F)nc1 (single isomer, unassigned) [Atropisomer A-3, 6-[5-(4-chlorophenyl)-1-[2-(trifluoromethyl)phenyl]pyrrol-2-yl]-N-[2-(dimethylamino)ethyl]pyridine-3-carboxamide]
